Reference: article PMC11202002, “P18: Novel Anticancer Peptide from Induced Tumor-Suppressing Cells Targeting Breast Cancer and Bone Metastasis” (Cancers, 2024)

Columns and labels:
Rac1 = assay: FRET-based GTPase activity assay; assay type: cell-based; settings: MDA-MB-231 cells; 25 µg/mL for 3 h
Excerpt: (§1) The three FRET GTPase biosensors were utilized to monitor the activities of Rac1, Cdc42, and RhoA in response to ACPs. GTPase activity was estimated based on the emission ratio of yellow fluorescent protein (YFP) to cyan fluorescent protein (CFP), using a Nikon Ti-E inverted microscope with an EMCCD camera (Photometrics, Tucson, AZ, USA), a filter wheel controller (Sutter Instruments, Novato, CA, USA), and a Nikon Perfect Focus System. To reduce photobleaching, an Intensilight fluorescence illuminator (Nikon, Tokyo, Japan) was employed with a neutral-density 32 filter (3% transmittance). The images were captured with a 40× (0.75 numerical aperture) objective, and they were scaled utilizing the color bar, as previously published.
(§2) This study next investigated the role of P18 in regulating the activity of Rho family GTPases. MDA-MB-231 breast cancer cells were transfected with Rac1, Cdc42, or RhoA biosensors and treated with P18 at a concentration of 25 µg/mL for 3 h. The GTPase activity was assessed by measuring the emission ratio of the biosensor within individual live cells.

Cdc42 = assay: FRET-based GTPase activity assay; assay type: cell-based; settings: MDA-MB-231 cells; 25 µg/mL for 3 h
Excerpt: as §1, §2

RhoA = assay: FRET-based GTPase activity assay; assay type: cell-based; settings: MDA-MB-231 cells; 25 µg/mL for 3 h
Excerpt: as §1, §2

[1] = test system: RANKL-stimulated osteoclasts; assay: Osteoclast differentiation and maturation; assay type: cell-based; settings: 25 μg/mL
[2] = test system: MDA-MB-231 breast cancer cells; assay: Western blot analysis; assay type: cell-based, human; settings: 25 µg/mL
Procedure: (§3) Cells were lysed using a RIPA lysis buffer (sc-24948, Santa Cruz Biotech, Dallas, TX, USA) containing protease inhibitors (PIA32963, Thermo Fisher) and phosphatase inhibitors (2006643, Cal-biochem, Billerica, MA, USA). The proteins were separated on 10–15% SDS gels (Bio-Rad Laboratories, Hercules, CA, USA) and transferred to a polyvinylidene difluoride membrane (IPVH00010, Millipore, Billerica, MA, USA). The membrane was incubated with primary antibodies, followed by incubation with secondary antibodies (7074S/7076S, Cell Signaling, Danvers, MA, USA). The antibodies used included those against Snail, p-Src, Src, cleaved caspase 3, caspase 3, RANKL, Cdc42, Col1 and RhoA (Cell Signaling), ALP (Santa Cruz Biotech), OCN (Abcam, Boston, MA, USA), with β-actin (Sigma) as a control. The protein levels were detected using SuperSignal West Femto Maximum Sensitivity Substrate (PI34096, Thermo Fisher) and a luminescent image analyzer (LAS-3000, Fuji Film, Tokyo, Japan).

[3] = test system: MDA-MB-436 breast cancer cells; assay: Western blot analysis; assay type: cell-based, human; settings: 25 µg/mL
Procedure: as §3

[4] = test system: 4T1.2 mammary tumor cells; assay: MTT-based cell viability assay; set-up: species or system mouse; settings: 25 μg/mL
Procedure: Using 96-well plates with approximately 2000 cells per well, an MTT-based metabolic activity assay was performed. The cells were treated with agents and incubated for two days. On the fourth day, they were stained with 0.5 mg/mL thiazolyl blue tetrazolium bromide (M5655, Sigma). The optical density, used to assess metabolic activity, was measured at 562 nm. For the EdU-based proliferation activity assay, the cells were seeded in 96-well plates at about 1000 cells per well. A fluorescence-based cell proliferation kit (Click-iT™, EdU Alexa Fluor™ 488 Imaging Kit; Thermo Fisher, Waltham, MA, USA) was used according to the manufacturer’s instructions.

MDA-MB-231 cells = assay: Scratch-based motility assay; assay type: cell-based, human; settings: 25 µg/mL, 24 h
Procedure: (§4) To evaluate the two-dimensional motility of cancer cells, a wound-healing scratch assay was utilized, and the change in the scratch area was determined. On day 1, ~3 × 10^5 cells were seeded in 12-well plates, and, on day 2, a scratch was made on the cell layer, with the tip of a plastic pipette. Using a light microscope (40×), cell-free zones were imaged after 0 h and 24 h, and the alteration in their areas was quantified by Image J (Version 1.54 f).

MDA-MB-436 cells = assay: Scratch-based motility assay; assay type: cell-based, human; settings: 25 µg/mL, 24 h
Procedure: as §4

TDYMVGSYGPR [P18]
Rac1 GTPase activity (FRET biosensor emission ratio) (Rac1): no significant change | Cdc42 GTPase activity (FRET biosensor emission ratio) (Cdc42): significant decrease | RhoA GTPase activity (FRET biosensor emission ratio) (RhoA): significant decrease | differentiation and maturation of RANKL-stimulated osteoclasts [1]: inhibited | number of multi-nucleated TRAP-positive osteoclasts (more than three nuclei) [1]: significantly reduced | levels of RhoA and Cdc42 [2]: slight upregulation | levels of cleaved caspase 3 [2]: increasing | levels of p-Src and Snail [2]: downregulated | levels of RhoA and Cdc42 [3]: slight upregulation | levels of cleaved caspase 3 [3]: increasing | levels of p-Src and Snail [3]: downregulated | MTT-based viability [4]: consistently reduced | scratch-based motility (MDA-MB-231 cells): effectively reduced | scratch-based mobility (MDA-MB-436 cells): inhibited
